Assay results from US9206188B2, “Substituted pyrrolo[2,3-b]pyridines as ITK and JAK inhibitors” (Arrien Pharmaceuticals LLC, priority 2013, dated 2015).
Read-outs that look alike come from different tables or passages of the source.

Key:
[1] = test system: IL-2 release from CD4+ T cells; assay: IL-2 release from CD4+ T cells using HTRF; format: cell-based; settings: read-out: inhibition of IL-2 release from CD4+ T cells
[2] = test system: Anti-CD3e antibody induced CD4+ T cell cytokine-IL-2, IL-4 and IFN-γ production; assay: Anti-CD3e antibody induced CD4+ T cell cytokine production in male BALB/c mice; format: in vivo; settings: compared to Positive control; 1.5 hrs post-antibody treatment
Description: 1H-pyrrolo[2,3-b]pyridine series of compounds Mice IL-2, IL-4 and IFN-g: 60 mg/Kg is highly efficacious. There is a significant increase in serum IL-2, IL-4 and IFN-gamma (P<0.001) of Positive Control animals compared to negative control animals.

ITK = ITK (Homo sapiens (Human), UniProt Q08881); assay: ITK kinase assay (radiometric filter binding, 10 μM ATP); format: biochemical
Description: (§1) All additions were done on ice, followed by the addition of ATP mix. Wells were uniformly mixed using an Eppendorff plate shaker and incubated at 30° C. for 20 min, and stopped by the addition of 5 μL of 3% phosphoric acid. Volume was increased to 100 μL by adding 0.8% phosphoric acid which was then transferred to PC filter mats (Millipore), pre-equilibrated with 70% ethanol and water. Plates were washed thrice with 100 μL 0.8% phosphoric acid and dried for an hour at 60° C. 100 μL scintillation fluid was added into each well and reading taken in Perkin Elmer TOPCOUNT beta counter.
(§2) The reactions were carried out at 10 μM ATP for ITK, JAK3 and other TEC and Janus family of kinase.

JAK3 = JAK3 (Homo sapiens (Human), UniProt P52333); assay: JAK3 kinase assay (radiometric filter binding, 10 μM ATP); format: biochemical
Description: as §1, §2

[3] = Pharmacokinetics in male Sprague Dawley rats; format: in vivo; settings: rat, plasma
Description: The bio-availability and pharmacokinetics of some compounds of the present invention were examined in male Sprague Dawley rats. A total of 6 male rats were used in the study. The study was performed using parallel design (n=3) with serial sampling.
Dose formulations were prepared on the day of doing. Blood samples were collected at 0.083 (only IV), 0.25, 0.5, 1, 2, 4, 8 and 24 h post-dose. At each time point, approximately 0.2 mL of blood was withdrawn from each cannulated rat through jugular vein and transferred to a pre-labeled microfuge tube containing 20 μL of 200 mm K2EDTA permL of blood. Following collection of blood sample, equal volume of heparinized saline was flushed into jugular vein of rat. The blood samples were centrifuged at 5000 g for 5 min at 4±2° C. The plasma was separated within 30 min of scheduled time and stored below −60° C. until bio-analysis. […] The pharmacokinetic parameters for select EXAMPLES were calculated using the non-compartmental analysis tool of validated WinNonlin® software (Version 5.2).

T cell receptor = assay: SelectScreen cell-based pathway profiling, T cell receptor, NFAT-bla Jurkat, anti-CD3:CD28 stimulated; settings: NFAT-bla Jurkat cells, anti-CD3:CD28 stim
[4] = test system: Established Type II Collagen Arthritis; assay: 11 day mouse established type II collagen arthritis, PO, BID; format: in vivo, DBA/1OlaHsd Mouse
Source text: Effects of 1H-pyrrolo[2,3-b]pyridine Series of Compounds Administered PO, BID in 11 Day DBA/1OlaHsd Mouse Established Type II Collagen Arthritis

IL-4/STAT6 = assay: SelectScreen cell-based pathway profiling, IL-4/STAT6, STAT6-bla RA1, IL-4 stimulated; settings: STAT6-bla RA1 cells, IL-4 stim, 10-point titration
JAK/STAT [5] = assay: SelectScreen cell-based pathway profiling, JAK/STAT, SIE-bla HEK 293T, IFN-gamma stimulated; settings: SIE-bla HEK 293T cells, IFN-gamma stim
JAK/STAT [6] = assay: SelectScreen cell-based pathway profiling, JAK/STAT, SIE-bla HEK 293T, IL-6 stimulated; settings: SIE-bla HEK 293T cells, IL-6 stim
JAK2/STAT5 = assay: SelectScreen cell-based pathway profiling, JAK2/STAT5, irf1-bla TF1, EPO stimulated; settings: irf1-bla TF1 cells, EPO stim
[7] = IV 5 mg/kg, solution, male Sprague Dawley rats, mean±SD, n=3
[8] = PO 20 mg/kg, solution, male Sprague Dawley rats, mean±SD, n=3
[9] = 10-dose IC50 mode, 10 μM ATP, read-out: ITK kinase inhibition
[10] = 10-dose IC50 mode, 10 μM ATP, read-out: JAK3 kinase inhibition

Chain of JAK3 (P52333 whole entry): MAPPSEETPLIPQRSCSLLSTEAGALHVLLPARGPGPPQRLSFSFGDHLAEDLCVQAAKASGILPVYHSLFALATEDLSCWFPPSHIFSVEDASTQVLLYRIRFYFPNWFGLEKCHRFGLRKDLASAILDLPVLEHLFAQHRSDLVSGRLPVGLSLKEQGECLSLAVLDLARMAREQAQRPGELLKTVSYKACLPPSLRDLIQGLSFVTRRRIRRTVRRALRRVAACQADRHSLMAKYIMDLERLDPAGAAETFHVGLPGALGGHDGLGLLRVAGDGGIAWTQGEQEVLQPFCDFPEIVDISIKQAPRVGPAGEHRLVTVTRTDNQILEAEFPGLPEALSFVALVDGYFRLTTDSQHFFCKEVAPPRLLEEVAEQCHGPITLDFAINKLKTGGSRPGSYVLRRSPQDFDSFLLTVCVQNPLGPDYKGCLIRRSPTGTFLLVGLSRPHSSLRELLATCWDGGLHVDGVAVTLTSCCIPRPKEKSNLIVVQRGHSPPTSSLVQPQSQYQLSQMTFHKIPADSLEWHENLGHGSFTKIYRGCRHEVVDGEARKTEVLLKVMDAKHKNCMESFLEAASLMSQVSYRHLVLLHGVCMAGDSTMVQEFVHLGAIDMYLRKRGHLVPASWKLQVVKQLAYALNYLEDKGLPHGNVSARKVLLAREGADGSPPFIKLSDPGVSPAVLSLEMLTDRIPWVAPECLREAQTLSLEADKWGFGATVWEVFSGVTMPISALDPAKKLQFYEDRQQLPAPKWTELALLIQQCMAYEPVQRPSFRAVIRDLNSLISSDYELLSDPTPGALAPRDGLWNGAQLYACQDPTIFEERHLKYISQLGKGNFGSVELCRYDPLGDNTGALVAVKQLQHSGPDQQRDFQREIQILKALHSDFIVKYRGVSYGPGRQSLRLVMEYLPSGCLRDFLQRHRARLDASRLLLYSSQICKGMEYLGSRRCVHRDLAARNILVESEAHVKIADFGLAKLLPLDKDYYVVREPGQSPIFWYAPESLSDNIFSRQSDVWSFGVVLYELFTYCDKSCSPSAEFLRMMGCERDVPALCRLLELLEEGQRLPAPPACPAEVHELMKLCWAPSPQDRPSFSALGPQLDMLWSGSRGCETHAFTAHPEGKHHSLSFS
Chain of ITK (Q08881 whole entry): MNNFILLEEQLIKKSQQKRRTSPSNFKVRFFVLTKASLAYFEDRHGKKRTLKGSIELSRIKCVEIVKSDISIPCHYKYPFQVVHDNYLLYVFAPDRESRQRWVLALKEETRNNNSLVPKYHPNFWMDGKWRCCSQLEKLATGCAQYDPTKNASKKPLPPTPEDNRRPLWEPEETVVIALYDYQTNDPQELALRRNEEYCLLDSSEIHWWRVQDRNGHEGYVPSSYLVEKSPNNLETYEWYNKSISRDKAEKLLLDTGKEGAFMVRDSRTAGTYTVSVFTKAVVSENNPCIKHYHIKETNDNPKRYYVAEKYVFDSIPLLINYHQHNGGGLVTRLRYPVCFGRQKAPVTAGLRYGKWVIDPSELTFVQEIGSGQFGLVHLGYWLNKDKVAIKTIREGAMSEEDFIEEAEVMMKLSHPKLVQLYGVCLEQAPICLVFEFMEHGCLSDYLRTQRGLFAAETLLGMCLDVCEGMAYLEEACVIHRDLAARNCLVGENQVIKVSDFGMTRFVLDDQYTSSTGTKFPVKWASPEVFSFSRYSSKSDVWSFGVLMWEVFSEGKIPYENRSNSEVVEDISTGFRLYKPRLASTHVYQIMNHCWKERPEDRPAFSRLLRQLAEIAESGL

COc1cc(C)c(Sc2cnc(NC(=O)c3ccc(CNC(C)C(C)(C)C)cc3)s2)cc1C(=O)N1CCN(C(C)=O)CC1 (stereo not shown) [BMS509744]
IC50 [1]: 350 nM

C[C@@H]1C[C@H]2[C@@H]3CCC4=CC(=O)C=C[C@]4(C)[C@@]3(F)[C@@H](O)C[C@]2(C)[C@@]1(O)C(=O)CO [Dexamethasone]
serum IFN-gamma [2]: significant decrease
serum IL-2 [2]: significant decrease
serum IL-4 [2]: significant decrease

C=CC(=O)Nc1cccc(-c2cnc3[nH]cc(Cl)c3c2)c1 [Example 7, N-(3-(3-chloro-1H-pyrrolo[2,3-b]pyridin-5-yl)phenyl)acrylamide]
IC50 (ITK; read-out: biochemical IC50 against ITK): 100 to 1000 nM
IC50 (JAK3; read-out: biochemical IC50 against JAK3): 100 to 1000 nM
bioavailability ([3]; male, Sprague Dawley, PO 20 mg/kg vs IV 5 mg/kg, AUCinf and nominal doses used, read-out: F (bioavailability)): 15%
AUC(0-inf) [3, 7]: 2620 ± 647 ng·h/mL
AUC(0-t) [3, 7]: 2600 ng·h/mL
clearance [3, 7]: 33.4 ± 9.57 mL/min/kg
half-life [3, 7]: 32.4 ± 3 min
Cmax ([3]; IV 5 mg/kg, solution, male Sprague Dawley rats, mean±SD, n=3, read-out: Cmax (back extrapolated concentration at time zero)): 3850 ng/mL
Vd ([3]; IV 5 mg/kg, solution, male Sprague Dawley rats, mean±SD, n=3, read-out: Vss): 1.61 ± 0.28 L/kg
AUC(0-inf) [3, 8]: 1600 ± 183 ng·h/mL
AUC(0-t) [3, 8]: 1580 ng·h/mL
Cmax ([3]; PO 20 mg/kg, solution, male Sprague Dawley rats, mean±SD, n=3, read-out: Cmax): 853 ng/mL
Tmax ([3]; PO 20 mg/kg, solution, male Sprague Dawley rats, median (range), n=3): 15 min

CCC#CC(=O)Nc1cccc(-c2cnc3[nH]cc(-c4cccc(S(=O)(=O)N(C)C(C)(C)C)c4)c3n2)c1 [Example 96, N-(3-(7-(3-(N-(tert-butyl)-N-methylsulfamoyl)phenyl)-5H-pyrrolo[2,3-b]pyrazin-2-yl)phenyl)pent-2-ynamide]
IC50 (ITK; [9]): > 100 nM
IC50 (JAK3; [10]): > 100 nM

C#CC(=O)Nc1cccc(-c2cnc3[nH]cc(-c4cc(F)cc(F)c4OC)c3c2)c1 [Example 98, N-(3-(3-(3,5-difluoro-2-methoxyphenyl)-1H-pyrrolo[2,3-b]pyridin-5-yl)phenyl)propiolamide]
IC50 (ITK; [9]): > 100 nM
IC50 (JAK3; [10]): > 100 nM

COc1c(F)cc(F)cc1-c1c[nH]c2ncc(-c3cc(NC(=O)/C=C/CN(C)C)ccc3F)cc12 [Example 133, (E)-N-(3-(3-(3,5-difluoro-2-methoxyphenyl)-1H-pyrrolo[2,3-b]pyridin-5-yl)-4-fluorophenyl)-4-(dimethylamino)but-2-enamide]
IC50 (ITK; [9]): > 100 nM
IC50 (JAK3; [10]): > 100 nM

COc1cc(F)c(C)cc1-c1c[nH]c2ncc(-c3cccc(NC(=O)/C=C/CN(C)C)c3)cc12 [Example 138, (E)-4-(dimethylamino)-N-(3-(3-(4-fluoro-2-methoxy-5-methylphenyl)-1H-pyrrolo[2,3-b]pyridin-5-yl)phenyl)but-2-enamide]
IC50 (ITK; [9]): > 100 nM
IC50 (JAK3; [10]): > 100 nM

C=CC(=O)Nc1cccc(-c2cnc3[nH]cc(-c4cc(C)c(F)cc4OC)c3c2)c1 [Example 140, N-(3-(3-(4-fluoro-2-methoxy-5-methylphenyl)-1H-pyrrolo[2,3-b]pyridin-5-yl)phenyl)acrylamide]
IC50 (ITK; [9]): > 1000 nM
IC50 (JAK3; [10]): > 100 nM

Cc1cccc(-c2c[nH]c3ncc(-c4cccc(NC(=O)/C=C/CN(C)C)c4)cc23)c1F [Example 145, (E)-4-(dimethylamino)-N-(3-(3-(2-fluoro-3-methylphenyl)-1H-pyrrolo[2,3-b]pyridin-5-yl)phenyl)but-2-enamide]
IC50 (ITK; [9]): > 100 nM
IC50 (JAK3; [10]): > 100 nM

Cc1c[nH]c2ncc(-c3cccc(NC(=O)/C=C/CN(C)C)c3)cc12 [Example 152, (E)-4-(dimethylamino)-N-(3-(3-methyl-1H-pyrrolo[2,3-b]pyridin-5-yl)phenyl)but-2-enamide]
IC50 (ITK; [9]): > 100 nM
IC50 (JAK3; [10]): > 100 nM

CN(C)C/C=C/C(=O)Nc1cccc(-c2cnc3[nH]cc(Cl)c3c2)c1 [Example 153, (E)-N-(3-(3-chloro-1H-pyrrolo[2,3-b]pyridin-5-yl)phenyl)-4-(dimethylamino)but-2-enamide]
IC50 (ITK; [9]): > 100 nM
IC50 (JAK3; [10]): < 100 nM

COc1c(F)cc(F)cc1-c1c[nH]c2ncc(-c3cccc(NC(=O)/C(C)=C/C(C)(C)C)c3)cc12 [Example 158, (E)-N-(3-(3-(3,5-difluoro-2-methoxyphenyl)-1H-pyrrolo[2,3-b]pyridin-5-yl)phenyl)-2,4,4-trimethylpent-2-enamide]
IC50 (ITK; [9]): < 100 nM
IC50 (JAK3; [10]): < 100 nM

C=CC(=O)Nc1cc(F)cc(-c2cnc3[nH]cc(-c4cc(F)cc(F)c4OC)c3c2)c1C [Example 168, N-(3-(3-(3,5-difluoro-2-methoxyphenyl)-1H-pyrrolo[2,3-b]pyridin-5-yl)-5-fluoro-2-methylphenyl)acrylamide]
IC50 (ITK; [9]): < 100 nM
IC50 (JAK3; [10]): < 100 nM

COc1c(F)cc(F)cc1-c1c[nH]c2ncc(-c3cc(F)cc(NC(=O)/C=C/CN(C)C)c3C)cc12 [Example 169, (E)-N-(3-(3-(3,5-difluoro-2-methoxyphenyl)-1H-pyrrolo[2,3-b]pyridin-5-yl)-5-fluoro-2-methylphenyl)-4-(dimethylamino)but-2-enamide]
IC50 (ITK; [9]): < 100 nM
IC50 (JAK3; [10]): < 100 nM

COc1c(F)cc(F)cc1-c1c[nH]c2ncc(-c3cc(F)cc(NC(=O)/C(C)=C/C(C)(C)C)c3C)cc12 [Example 170, (E)-N-(3-(3-(3,5-difluoro-2-methoxyphenyl)-1H-pyrrolo[2,3-b]pyridin-5-yl)-5-fluoro-2-methylphenyl)-2,4,4-trimethylpent-2-enamide]
IC50 (ITK; [9]): < 100 nM
IC50 (JAK3; [10]): < 100 nM

COc1cc(F)c(C)cc1-c1c[nH]c2ncc(-c3cc(F)cc(NC(=O)/C=C/CN(C)C)c3C)cc12 [Example 172, (E)-4-(dimethylamino)-N-(5-fluoro-3-(3-(4-fluoro-2-methoxy-5-methylphenyl)-1H-pyrrolo[2,3-b]pyridin-5-yl)-2-methylphenyl)but-2-enamide]
IC50 (ITK; [9]): < 100 nM
IC50 (JAK3; [10]): < 100 nM

COc1cc(F)c(C)cc1-c1c[nH]c2ncc(-c3cc(F)cc(NC(=O)/C(C)=C/C(C)(C)C)c3C)cc12 [Example 173, (E)-N-(5-fluoro-3-(3-(4-fluoro-2-methoxy-5-methylphenyl)-1H-pyrrolo[2,3-b]pyridin-5-yl)-2-methylphenyl)-2,4,4-trimethylpent-2-enamide]
IC50 (ITK; [9]): < 100 nM
IC50 (JAK3; [10]): < 100 nM

Cn1cc(C2=C(c3cn(CCCSC(=N)N)c4ccccc34)C(=O)NC2=O)c2ccccc21 [Ro-31-8220]
IC50 (T cell receptor): 615 nM

C[C@@H]1CCN(C(=O)CC#N)C[C@@H]1N(C)c1ncnc2[nH]ccc12 [Tofacitinib]
serum IFN-gamma [2]: significant decrease
serum IL-2 [2]: significant decrease
serum IL-4 [2]: significant decrease
effectiveness, suppression of the inflammatory response ([4]; collagen-induced arthritis in mice): 97%
body weight ([4]; series 100 mg/kg group, Tofacitinib 60 mg/Kg): body weight change from day 1
fever ([4]; treated mice, in vivo studies): had fever

(E)-N-(3-(3-methyl-1H- pyrazolo[3,4-b]pyridin-5- yl)phenyl)acrylamide [Example 51]
IC50 (ITK; read-out: ITK kinase inhibition): > 100 nM
IC50 (JAK3; read-out: JAK3 kinase inhibition): > 100 nM

JAK Inhibitor I
IC50 (IL-4/STAT6): 14.5 nM
IC50 (JAK/STAT [5]): 83.5 nM
IC50 (JAK/STAT [6]): 22 nM
IC50 (JAK2/STAT5): 6.92 nM
